Measurements as given in patent US20090325920A1, “METHODS FOR THE TREATMENT OF A TRAUMATIC CENTRAL NERVOUS SYSTEM INJURY” (priority 2005, published 2009).

Key:
[1] = system: patients having moderate to severe TBI; assay: Pilot phase II randomized double-blind trial of progesterone for traumatic brain injury, preliminary evaluation (Example 2); format: in vivo, human
Protocol: The administration protocol was carried out was described above in Example 1.
To determine if a therapeutic response was achieved, the following endpoints were monitored:
ICP reduction determined by calculating “therapeutic intensity level” (ICP-TIL);
duration of coma (injury to awaking);
mortality one-month post injury;
neurological outcome 1 month and 1 year post-injury, as determined by Glasgow outcome scale (GOS), Disability rating scale (DRS) and Galveston orientation and amnesia test (GOAT).
The administration protocol and pharmaceutical composition administered are described in detail in Example 1. Follow up regarding condition occurred at 30 days and 1 year.

[2] = clinical; conditions: human, in vivo
Text: This study was approved by the Institutional Review Board of Emory University, the Drug Safety Monitoring Board (NINDS) and the FDA (IND #58,986). After obtaining informed consent, thirty-six patients meeting the inclusion criteria outlined as follows were studied. […] Inclusion criteria required that each patient be ≧18 years old, have a closed head injury arising from blunt trauma, have a moderate to severe brain injury (Index Glasgow Coma Score (GCS) 4-12) and arrive in the Emergency Department and obtain informed consent (from next-of-kin) in less than 11 hours post injury.
Aliquots of each solution were assayed for final concentration and sterility. […] Each kit contained six vials. […] The placebo kits were also formulated with 95% ethanol. Because of the alcohol concentration, doses of study drug were mixed with Intralipid® immediately prior to infusion. Each infusion dose was administered over 12 hours and repeated every 12 hours for a total of 72 hours. […] The dosing worksheet was also used to calculate the volume of study medication to be diluted in Intralipid® for each of the remaining infusion reservoirs at a standard rate of 10 cc/hr.
Nine (5 ml) samples were obtained at the following times during the infusion: pre-infusion (0), 4, 6, 12, 24, 36, 48, 60, and 72 hours. An additional five samples were obtained following cessation of infusion at: 0.5, 1, 2, 4 and 8 hours. Samples were allowed to clot, and then centrifuged After that, the serum was removed and stored at −70° C. until analyzed.
The primary pharmacokinetic parameter, CL, was estimated as the ratio of the dose to area under the serum concentration-time curve (AUC). AUC's were calculated using the linear trapezoidal rule (Veng-Pedersen (1989) Clin Pharmacokinet, 17(6):424-40). The elimination phase rate constant, ke, was calculated from the serum concentration-time data following the termination of the infusion using iterative non-linear regression (WinNonlin®, Pharsight Corporation, Mountain View, Calif.). Volume of Distribution was estimated as the ratio of CL and ke. Css was estimated as the ratio of Dose and CL. Actual Css was defined as the concentration achieved when the slope of the serum concentration-time curve for three or more consecutive samples was not different from zero.
Predicted Css concentrations were calculated as the ratio of the infusion rate/clearance. Differences between predicted and measured Css were made using a ‘t’ test for repeated measures. A Bland-Altman analysis was conducted to assess the magnitude of any bias associated with this approach (Bland and Altman (1986) Lancet, 1(8476):307-10). Pharmacokinetic parameter comparisons between male and female were accomplished using a ‘t’ test for independent means. A p value of less than 0.05 was considered the minimum level for rejection of the null hypothesis.

[3] = system: adults with blunt TBI, Glasgow Coma Scale score 4-12; assay: Phase II randomized placebo-controlled trial in acute TBI: signals of activity, 30-day outcomes (Example 3); format: in vivo, human; conditions: for All cause mortality (ITT): intention to treat, n=77
Text: In addition to monitoring subjects for signs of harm, we hoped to detect signals of activity. […] For this preliminary study, our primary outcome of interest was Glasgow Outcome Scale Extended (GOSE) 30 days post-injury. […] Thirty days following each injury event, we assessed each patient's Glasgow Outcome Score Extended (GOSE) and Disability Rating Scale (DRS). Patients who were severely impaired were classified as “not testable”-a surrogate marker for a poor outcome. Reliability codes were used to record reasons for non-administration of a particular measure, such as physical impairment (e.g., hemiparesis) cognitive impairment (e.g., could not understand instructions), or intoxication. One-year outcomes will be reported at a later date. […] Our secondary aim was to look for signs of drug activity by assessing several measures of outcome. Our a priori primary measure of outcome was the Glasgow Outcome Scale-Extended ([…] et al. (1998) Journal of Neurotrauma 15(8):587-597). […] (1987) Journal of Neurosurgery 67(6):832-840) and 5) the Disability Rating Scale (DRS) (Hall et al. […] Variables determined to be independently associated with all-cause mortality or CNS related-death, such as iGCS (dichotomized into moderate versus severe), injury severity score and Marshall CT score were incorporated in a stepwise logistic regression analyses. Because GCS often fluctuates during the first few hours after injury, additional stepwise logistic regressions were performed using dichotomized GCS 1 day post-injury.

[4] = number of subjects, treatment A (76 of 99)
[5] = 30 days post injury, treatment received
[6] = Index GCS = 9-12, 30 days post injury

In the case of `CC(=O)[C@H]1CC[C@H]2[C@@H]3CCC4=CC(=O)CC[C@]4(C)[C@H]3CC[C@]12C` [progesterone, pregn-4-ene-3,20-dione], the mortality rate ([1]; moderate to severe TBI, three days IV progesterone, preliminary) is reported as 12.9%, the “Brain death, frequency” value [1, 4] is reported as 4 and the “Medicinal death, frequency” value [1, 4] is reported as 5. For the same compound, the “Not Dead, frequency” value [1, 4] was 67, the “proportion of subjects experiencing brain death versus group B” value ([1]; p=0.0295 by Fisher's exact test) was “significantly lower proportion” and the “proportion of subjects experiencing medical death versus group B” value ([1]; p=0.6622 by Fisher's exact) was “not statistically significant”. The “Medicinal death, percent” value ([1]; percent of all 99 subjects) was 5.05%, the “Not Dead, percent” value ([1]; percent of all 99 subjects) was 67.68% and the “reduction in brain deaths” value ([1]; versus control subjects, preliminary) was 60%. The Css actually measured ([2]; both) was 337 ± 135 ng/mL, the “Css predicted by Ro/CL” value ([2]; both) was 332 ± 121 ng/mL and the clearance ([2]; both, CL) was 28.8 mL/min/kg. The half-life ([2]; both, terminal half-life) was 1.78 ± 1 h, the “Css Measured” value ([2]; female) was 316 ng/mL and the clearance ([2]; female, CL) was 31.3 mL/min/kg. For the same compound, the Vd ([2]; female, iv) was 1.33 L/kg, the half-life ([2]; female, t1/2) was 2.03 ± 1.08 h and the clearance ([2]; male, CL) was 27.7 mL/min/kg. For the same compound, the Vd ([2]; male, iv) was 1.62 L/kg, the clearance ([2]; male, iv) was 22.2 mL/min/kg and the half-life ([2]; male, t1/2) was 1.6 ± 0.95 h. The “Dichotomized Glasgow Outcome Score - Extended: Dead to Upper Severe” value ([3]; 30 days post injury) was 70.0%, the “Dichotomized Glasgow Outcome Score - Extended: good or moderate recovery” value ([3]; 30 days post injury) was 30.0% and the “Glasgow Outcome Score - Extended: Dead” value ([3]; 30 days post injury) was 14.2%. For the same compound, the “Glasgow Outcome Score - Extended: Lower Good” value ([3]; 30 days post injury) was 4.3%, the “Glasgow Outcome Score - Extended: Lower Moderate” value ([3]; 30 days post injury) was 11.4% and the “Glasgow Outcome Score - Extended: Lower Severe” value ([3]; 30 days post injury) was 40.0%. For the same compound, the “Glasgow Outcome Score - Extended: Upper Good” value ([3]; 30 days post injury) was 4.3%, the “Glasgow Outcome Score - Extended: Upper Moderate” value ([3]; 30 days post injury) was 10.0% and the “Glasgow Outcome Score - Extended: Upper Severe” value ([3]; 30 days post injury) was 8.6%. The “Glasgow Outcome Score - Extended: Vegetative State” value ([3]; 30 days post injury) was 7.1%, the “All cause mortality (ITT)” value ([3]; 30 days post injury) was 13% and the “All cause mortality (ITT)” value ([3]; 30 days post injury, listed as Progesterone) was 13.0%. The “All cause mortality (TR)” value [3, 5] was 11.8%, the Neurological deaths [3, 5] was 5.3% and the Non-neurological deaths [3, 5] was 6.6%. The “dichotomized GOSE versus placebo” value ([3]; 30 days post-injury) was “did not significantly differ between groups”, the “Disability Rating Score: Total DRS, mean” value ([3]; Index GCS = 4-8, 30 days post injury) was 10.7 and the “Disability Rating Score: Employ, mean” value [3, 6] was 1.8. For the same compound, the “Disability Rating Score: Function, mean” value [3, 6] was 1.5, the “Disability Rating Score: Total DRS, mean” value [3, 6] was 5 and the “Duration of Coma, mean” value ([3]; Initial GCS = 4-8) was 10.1 days. The “Duration of Post-Traumatic Amnesia, mean” value ([3]; Initial GCS = 4-8) was 18.6 days, the “Duration of Coma, mean” value ([3]; Initial GCS = 4-8, listed as Progesterone) was 10.11 days and the “Duration of Coma, mean” value ([3]; Initial GCS = 9-12) was 4.1 days. For the same compound, the “Duration of Post-Traumatic Amnesia, mean” value ([3]; Initial GCS = 9-12) was 10.7 days, the “trend of mean intracranial pressure levels” value ([3]; first 4 days post-injury, subjects with monitors in place, not statistically significant) was “remained stable” and the “Intracranial Pressure, mean” value ([3]; infusion day 0) was 16.0 mm Hg. The “Intracranial Pressure, mean” value ([3]; infusion day 1) was 17.1 mm Hg, the “Intracranial Pressure, mean” value ([3]; infusion day 2) was 15.4 mm Hg and the “Intracranial Pressure, mean” value ([3]; infusion day 3) was 16.0 mm Hg. For the same compound, the “Intracranial Pressure, mean” value ([3]; infusion day 4) was 17.7 mm Hg, the “DRS scores versus placebo” value ([3]; moderately brain-injured patients, 30 days post-injury) was “significantly better DRS scores” and the “Survived > 30 days” value ([3]; treatment received) was 88.2%.
